In patent US12234211B2, “Cycloolefin substituted heteroaromatic compounds and their use” (HUTCHISON MEDIPHARMA LIMITED, priority 2017, dated 2025):

Key:
IDH2-R140Q = target: T1, IDH2-R140Q (Homo sapiens, UniProt P48735, R140Q); assay: Fluorescent determination of IDH2-R140Q cell activity (2-HG in U87MGR140Q cells); format: cell-based; details: 72 hours incubation, read-out: IC50 (2-HG inhibition)
T1 construct: expressed in transfected cells
T1 sequence (P48735 40-452 R140Q): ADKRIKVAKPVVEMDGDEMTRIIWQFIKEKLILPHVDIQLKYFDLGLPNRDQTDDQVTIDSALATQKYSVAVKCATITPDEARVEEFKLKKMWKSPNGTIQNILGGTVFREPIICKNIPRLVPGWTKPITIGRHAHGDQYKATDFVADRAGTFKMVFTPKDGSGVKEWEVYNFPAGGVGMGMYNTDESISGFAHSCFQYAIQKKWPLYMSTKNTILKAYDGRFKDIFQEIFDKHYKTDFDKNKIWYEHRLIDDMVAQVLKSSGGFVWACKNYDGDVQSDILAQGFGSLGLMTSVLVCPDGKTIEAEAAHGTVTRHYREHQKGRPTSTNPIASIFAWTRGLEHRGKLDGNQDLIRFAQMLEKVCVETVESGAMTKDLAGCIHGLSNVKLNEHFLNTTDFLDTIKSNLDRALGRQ
Protocol: Enzyme reaction solution: 1 mM nicotinamide adenine dinucleotide (NAD), 0.6 ng/μL D-2-hydroxyglutarate dehydrogenase (D2HGDH), 0.8 U/mL lipoamidase dehydrogenase (Diaphorase) and 60 μM Resazurin in 40 mM Tris.HCl pH 8.8 assay buffer.
Standard curve stock solution: The standard of 2-HG sodium salt was serially diluted in serum-free MEM medium to make a standard curve stock solution.
100 μL of U87MGR140Q cells were seeded at a density of 6×10^4/mL per well in a 96-well plate a.
From each well of 96-well plate a, 50 μL of the culture supernatant was transferred to the corresponding well of 96-well plate b; at the same time, 50 μL of standard curve stocking solution was added to other wells of 96-well plate b. Then 10 μl of 360 mM hydrochloric acid was added to all the wells. After shaking and mixing, the plate was placed on ice for 10 minutes, and then 10 μl of 420 mM Tris-base was added. After shaking and mixing, the plate was placed on ice for additional 5 minutes. Then the plate was centrifuged at 2500 rpm for 10 minutes.
After centrifuging, from each well of 96-well plate b, 20 μL of the supernatant was transferred to 96-well plate c. An additional 80 μL of the enzyme reaction solution was added to each well and incubated at 25° C. for 90 minutes.
A standard curve of the fluorescence value vs. the corresponding 2-HG concentration was made, and the 2-HG concentration corresponding to each concentration point of the compound was calculated, then the inhibition ratio was calculated, and the data was analyzed using XLfit5 (ID Business Solutions Limited) software to obtain the IC50 value.
The inhibition ratio was calculated as follows: Inhibition Ratio (IH %)=(1-2-HG concentration of test compound treated cells/2-HG concentration of control cells)×100%.

IDH1-R132H = target: T2, IDH1-R132H (Homo sapiens, UniProt O75874, R132H); assay: Fluorescent determination of IDH1-R132H cell activity (2-HG in U87MGR132H cells); format: cell-based; details: 2-HG inhibition in U87MGR132H cells transfected with IDH1-R132H mutant plasmid
T2 construct: expressed in transfected cells; host or cells: U87MG cells (U87MGR132H)
T2 sequence (O75874 whole entry R132H): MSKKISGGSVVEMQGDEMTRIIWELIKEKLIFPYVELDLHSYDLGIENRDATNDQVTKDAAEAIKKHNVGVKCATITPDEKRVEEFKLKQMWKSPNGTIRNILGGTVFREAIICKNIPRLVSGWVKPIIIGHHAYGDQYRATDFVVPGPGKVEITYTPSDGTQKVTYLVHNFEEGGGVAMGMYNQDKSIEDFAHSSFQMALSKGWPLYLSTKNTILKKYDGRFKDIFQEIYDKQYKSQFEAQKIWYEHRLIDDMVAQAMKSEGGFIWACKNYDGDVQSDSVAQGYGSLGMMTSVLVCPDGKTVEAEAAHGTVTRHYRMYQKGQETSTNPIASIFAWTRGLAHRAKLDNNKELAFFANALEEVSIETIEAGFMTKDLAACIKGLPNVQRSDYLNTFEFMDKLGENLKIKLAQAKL

Row | Structure (SMILES) | IC50 (IDH2-R140Q) [µM] | IC50 (IDH1-R132H) [µM]
1 | C[C@H](Nc1nc(NC2CC2)nc(C2=C(F)C(O)C(F)(F)CC2)n1)C(F)(F)F (mixture of isomers) [Compound 260] | 0.094 | > 10
2 | [2H]C([2H])([2H])C([2H])(Nc1nc(Nc2ccnc(C(F)(F)F)c2)nc(C2=C(F)C(O)CCC2)n1)C([2H])([2H])[2H] (stereo not shown) [Compound 54] | 0.015 | 1.68
3 | C[C@@H](Nc1nc(NCC2CCC2(F)F)nc(C2=C(F)C(O)CCC2)n1)C(F)(F)F (mixture of isomers) [Compound 171] | 0.268 | 1.57
4 | C[C@@H](Nc1nc(NC(C)(C)C)nc(C2=CC(O)CCC2)n1)C(F)(F)F (mixture of isomers) [Compound 155] | 0.319 | 2.25
5 | CONc1nc(N[C@H](C)C(F)(F)F)nc(C2=C(F)C(O)C(F)(F)CC2)n1 (mixture of isomers) [Compound 297, 2,6,6-Trifluoro-3-(4-(methoxyamino)-6-(((R)-1,1,1-trifluoropropan-2-yl)amino)-1,3,5-triazin-2-yl)cyclohex-2-en-1-ol] | 2.66 | > 10
6 | CC(C)[C@H](C)Nc1nc(N[C@H](C)C(F)(F)F)nc(C2=C(F)C(O)CCC2)n1 (mixture of isomers) [Compound 167] | 0.327 | 3.17
7 | CC(C)(C)ONc1nc(Nc2ccnc(C(F)(F)F)n2)nc(C2=C(F)C(O)C(F)(F)CC2)n1 (stereo not shown) [Compound 214] | 0.108 | > 10
8 | Cc1nccc(Nc2nc(NOC(C)(C)C)nc(C3=C(F)C(O)CCC3)n2)n1 (stereo not shown) [Compound 205] | 0.803 | > 10
9 | OC1CCCC(c2nc(NCC(F)(F)F)nc(NC3CC(F)(F)C3)n2)=C1F (stereo not shown) [Compound 241] | 0.1 | 2.06
10 | C[C@@H](Nc1nc(NC2CC2)nc(C2=C(F)C(O)C(F)(F)CC2)n1)C(F)(F)F (mixture of isomers) [Compound 238] | 0.139 | 7.36
11 | C[C@@H](Nc1nc(NCC2CC2)nc(C2=C(F)C(O)C(F)(F)CC2)n1)C(F)(F)F (stereo partly drawn) [Compound 234, 3-(4-((Cyclopropylmethyl)amino)-6-(((R)-1,1,1-trifluoropropan-2-yl)amino)-1,3,5-triazin-2-yl)-2,6,6-trifluorocyclohex-2-en-1-ol] | 0.078 | 1.76
12 | C[C@@H](Nc1nc(NC2CC(F)(F)C2)nc(C2=C(F)C(O)C(F)CC2)n1)C(F)(F)F (single isomer, unassigned) [Compound 228] | 0.417 | 0.705
13 | CC(C)Nc1nc(NC2CC(F)(F)C2)nc(C2=C(F)C(O)CCC2)n1 (stereo not shown) [Compound 51] | 0.125 | 6.04
14 | C[C@@H](Nc1nc(N[C@H](C)C(F)(F)F)nc(C2=C(F)C(O)C(Cl)CC2)n1)C(F)(F)F (mixture of isomers) [Compound 99, 3-(4,6-Bis(((R)-1,1,1-trifluoropropan-2-yl)amino)-1,3,5-triazin-2-yl)-6-chloro-2-fluoro-cyclohex-2-en-1-ol] | 0.553 | 0.938
15 | OC1C(F)=C(c2nc(Nc3ccnc(C(F)(F)F)c3)nc(NC(C3CC3)C3CC3)n2)CCC1(F)F (stereo not shown) [Compound 220] | 0.059 | 2.88
16 | C[C@@H](Nc1nc(N[C@H](C)C(F)(F)F)nc(C2=C(F)C(O)CCC2)n1)C1CC1 (mixture of isomers) [Compound 158] | 0.278 | 1.52
17 | CC(C)CNc1nc(N[C@H](C)C(F)(F)F)nc(C2=C(F)C(O)CCC2)n1 (stereo partly shown) [Compound 78] | 0.069 | 1.41
18 | C[C@@H](Nc1nc(NC2CCCC2)nc(C2=CC(O)CCC2)n1)C(F)(F)F (mixture of isomers) [Compound 130] | 0.067 | 0.733
19 | CCCNc1nc(N[C@H](C)C(F)(F)F)nc(C2=C(F)C(O)C(F)(F)CC2)n1 (mixture of isomers) [Compound 210] | 0.093 | 4.34
20 | C[C@@H](Nc1nc(N[C@H](C)C(F)(F)F)nc(C2=C(F)C(O)CCC2)n1)c1ccccc1 (mixture of isomers) [Compound 152, 2-Fluoro-3-(4-(((R)-1-phenylethyl)amino)-6-(((R)-1,1,1-trifluoropropan-2-yl)amino)-1,3,5-triazin-2-yl)cyclohex-2-en-1-ol] | 0.3 | 2.01
21 | C[C@@H](Nc1nc(NC2CCCC2(F)F)nc(C2=C(F)C(O)CCC2)n1)C(F)(F)F (mixture of isomers) [Compound 166] | 0.18 | 1.35

Row | Structure (SMILES) | IC50 (IDH2-R140Q) [µM] | IC50 (IDH1-R132H) [µM]
22 | CC(C)(C)ONc1nc(Nc2ccc3sncc3c2)nc(C2=C(F)C(O)CCC2)n1 (racemic) [Compound 34] | 0.145 | > 10
23 | CC(Nc1nc(N[C@H](C)C(F)(F)F)nc(C2=C(F)C(O)CCC2)n1)C(F)F (mixture of isomers) [Compound 174] | 0.096 | 0.343
24 | CC(C)(O)CNc1nc(Nc2ccc3sncc3c2)nc(C2=C(F)C(O)CCC2)n1 (stereo not shown) [Compound 199] | 1.5 | > 10
25 | [2H]C1([2H])CCC(c2nc(NOC(C)(C)C)nc(Nc3ccnc(C(F)(F)F)c3)n2)=C(F)C1O (stereo not shown) [Compound 89] | 0.057 | 2.96
26 | C[C@@H](Nc1nc(N[C@H](C)C(F)(F)F)nc(C2=C(F)C(O)C(F)(F)CC2)n1)C(F)(F)F (single isomer, unassigned) [Compound 198] | 0.845 | 1.89
27 | C[C@@H](Nc1nc(N[C@H](C)C(F)(F)F)nc(C2=C(F)C(O)C(F)CC2)n1)C(F)(F)F (stereo partly drawn) [Compound 266, 3-(4,6-Bis(((R)-1,1,1-trifluoropropan-2-yl)amino)-1,3,5-triazin-2-yl)-2,6-difluorocyclohex-2-en-1-D-1-ol] | 0.033 | 0.043
28 | C[C@H](Nc1nc(N[C@H](C)C(F)(F)F)nc(C2=C(F)C(O)CCC2)n1)C1CC1 (mixture of isomers) [Compound 8] | 0.216 | 1.22
29 | CC(C)Nc1nc(Nc2ccnc(F)c2)nc(C2=C(F)C(O)CCC2)n1 (stereo not shown) [Compound 74] | 0.034 | 7.44
30 | C[C@H](CF)Nc1nc(N[C@H](C)C(F)(F)F)nc(C2=C(F)C(O)CCC2)n1 (mixture of isomers) [Compound 169] | 0.738 | 9.46
31 | CC(C)Nc1nc(Nc2ccc3c(cnn3C)c2)nc(C2=C(F)C(O)CCC2)n1 (stereo not shown) [Compound 64] | 1.63 | > 10
32 | C[C@H](Nc1nc(N[C@H](C)C(F)(F)F)nc(C2=C(F)C(O)C(F)(F)CC2)n1)C(F)(F)F (stereo partly shown) [Compound 277] | 0.156 | 1.03
33 | [2H]C1(O)C(F)=C(c2nc(NC3CC3)nc(N[C@@H](C)C(F)(F)F)n2)CCC1(F)F (mixture of isomers) [Compound 278] | 0.148 | > 10
34 | CC(C)CNc1nc(N[C@H](C)C(F)(F)F)nc(C2=CC(O)CCC2)n1 (mixture of isomers) [Compound 134] | 0.1 | 2.47
35 | C[C@@H](Nc1nc(N[C@H](C)C(F)(F)F)nc(C2=C(F)C(=O)C(F)(F)CC2)n1)C(F)(F)F [Compound 296] | 0.423 | 1.14
36 | CC(Nc1nc(N[C@H](C)C(F)(F)F)nc(C2=C(F)C(O)CCC2)n1)C(C)(F)F (mixture of isomers) [Compound 175] | 0.291 | 0.495
37 | C[C@@H](Nc1nc(NC(CF)CF)nc(C2=C(F)C(O)CCC2)n1)C(F)(F)F (stereo partly shown) [Compound 41] | 0.297 | 1.63
38 | C[C@@H](Nc1nc(N[C@H](C)C(F)(F)F)nc(C2=C(F)C(O)C(F)CC2)n1)C(F)(F)F (stereo partly drawn) [Compound 268, 3-(4,6-Bis(((R)-1,1,1-trifluoropropan-2-yl)amino)-1,3,5-triazin-2-yl)-2,6-difluorocyclohex-2-en-1-D-1-ol] | 0.349 | 0.939
39 | OC1CCCCC(c2nc(NC3CC(F)(F)C3)nc(NC3CC(F)(F)C3)n2)=C1F (stereo not shown) [Compound 39, (*)3-(4,6-Bis((3,3-difluorocyclobutyl)amino)-1,3,5-triazin-2-yl)-2-fluorocyclohept-2-en-1-ol] | 0.164 | 1.91
40 | C[C@@H](Nc1nc(NCC2CC2)nc(C2=C(F)C(O)CCC2)n1)C(F)(F)F (stereo partly shown) [Compound 80] | 0.079 | 2.69
41 | C[C@@H](Nc1nc(NOC(C)(C)C)nc(C2=C(F)C(O)C(F)(F)CC2)n1)C(F)(F)F (mixture of isomers) [Compound 294] | 0.425 | 9.18
